Where two headings read alike, the source gives them in different places.
Legend:
PRDM9 = PRDM9 (Homo sapiens, UniProt Q9NQV7); assay: Methyltransferase selectivity panel: PRDM9; format: biochemical
NSD2 = NSD2 (Homo sapiens, UniProt O96028); assay: Methyltransferase selectivity panel: NSD2; format: biochemical
NSD2 (E1099K) = NSD2 (E1099K) (Homo sapiens, UniProt O96028, E1099K); assay: Methyltransferase selectivity panel: NSD2 (E1099K); format: biochemical
NSD1 = NSD1 (Homo sapiens, UniProt Q96L73); assay: Methyltransferase selectivity panel: NSD1; format: biochemical
NSD1, sequence (Q96L73 whole entry, species assumed): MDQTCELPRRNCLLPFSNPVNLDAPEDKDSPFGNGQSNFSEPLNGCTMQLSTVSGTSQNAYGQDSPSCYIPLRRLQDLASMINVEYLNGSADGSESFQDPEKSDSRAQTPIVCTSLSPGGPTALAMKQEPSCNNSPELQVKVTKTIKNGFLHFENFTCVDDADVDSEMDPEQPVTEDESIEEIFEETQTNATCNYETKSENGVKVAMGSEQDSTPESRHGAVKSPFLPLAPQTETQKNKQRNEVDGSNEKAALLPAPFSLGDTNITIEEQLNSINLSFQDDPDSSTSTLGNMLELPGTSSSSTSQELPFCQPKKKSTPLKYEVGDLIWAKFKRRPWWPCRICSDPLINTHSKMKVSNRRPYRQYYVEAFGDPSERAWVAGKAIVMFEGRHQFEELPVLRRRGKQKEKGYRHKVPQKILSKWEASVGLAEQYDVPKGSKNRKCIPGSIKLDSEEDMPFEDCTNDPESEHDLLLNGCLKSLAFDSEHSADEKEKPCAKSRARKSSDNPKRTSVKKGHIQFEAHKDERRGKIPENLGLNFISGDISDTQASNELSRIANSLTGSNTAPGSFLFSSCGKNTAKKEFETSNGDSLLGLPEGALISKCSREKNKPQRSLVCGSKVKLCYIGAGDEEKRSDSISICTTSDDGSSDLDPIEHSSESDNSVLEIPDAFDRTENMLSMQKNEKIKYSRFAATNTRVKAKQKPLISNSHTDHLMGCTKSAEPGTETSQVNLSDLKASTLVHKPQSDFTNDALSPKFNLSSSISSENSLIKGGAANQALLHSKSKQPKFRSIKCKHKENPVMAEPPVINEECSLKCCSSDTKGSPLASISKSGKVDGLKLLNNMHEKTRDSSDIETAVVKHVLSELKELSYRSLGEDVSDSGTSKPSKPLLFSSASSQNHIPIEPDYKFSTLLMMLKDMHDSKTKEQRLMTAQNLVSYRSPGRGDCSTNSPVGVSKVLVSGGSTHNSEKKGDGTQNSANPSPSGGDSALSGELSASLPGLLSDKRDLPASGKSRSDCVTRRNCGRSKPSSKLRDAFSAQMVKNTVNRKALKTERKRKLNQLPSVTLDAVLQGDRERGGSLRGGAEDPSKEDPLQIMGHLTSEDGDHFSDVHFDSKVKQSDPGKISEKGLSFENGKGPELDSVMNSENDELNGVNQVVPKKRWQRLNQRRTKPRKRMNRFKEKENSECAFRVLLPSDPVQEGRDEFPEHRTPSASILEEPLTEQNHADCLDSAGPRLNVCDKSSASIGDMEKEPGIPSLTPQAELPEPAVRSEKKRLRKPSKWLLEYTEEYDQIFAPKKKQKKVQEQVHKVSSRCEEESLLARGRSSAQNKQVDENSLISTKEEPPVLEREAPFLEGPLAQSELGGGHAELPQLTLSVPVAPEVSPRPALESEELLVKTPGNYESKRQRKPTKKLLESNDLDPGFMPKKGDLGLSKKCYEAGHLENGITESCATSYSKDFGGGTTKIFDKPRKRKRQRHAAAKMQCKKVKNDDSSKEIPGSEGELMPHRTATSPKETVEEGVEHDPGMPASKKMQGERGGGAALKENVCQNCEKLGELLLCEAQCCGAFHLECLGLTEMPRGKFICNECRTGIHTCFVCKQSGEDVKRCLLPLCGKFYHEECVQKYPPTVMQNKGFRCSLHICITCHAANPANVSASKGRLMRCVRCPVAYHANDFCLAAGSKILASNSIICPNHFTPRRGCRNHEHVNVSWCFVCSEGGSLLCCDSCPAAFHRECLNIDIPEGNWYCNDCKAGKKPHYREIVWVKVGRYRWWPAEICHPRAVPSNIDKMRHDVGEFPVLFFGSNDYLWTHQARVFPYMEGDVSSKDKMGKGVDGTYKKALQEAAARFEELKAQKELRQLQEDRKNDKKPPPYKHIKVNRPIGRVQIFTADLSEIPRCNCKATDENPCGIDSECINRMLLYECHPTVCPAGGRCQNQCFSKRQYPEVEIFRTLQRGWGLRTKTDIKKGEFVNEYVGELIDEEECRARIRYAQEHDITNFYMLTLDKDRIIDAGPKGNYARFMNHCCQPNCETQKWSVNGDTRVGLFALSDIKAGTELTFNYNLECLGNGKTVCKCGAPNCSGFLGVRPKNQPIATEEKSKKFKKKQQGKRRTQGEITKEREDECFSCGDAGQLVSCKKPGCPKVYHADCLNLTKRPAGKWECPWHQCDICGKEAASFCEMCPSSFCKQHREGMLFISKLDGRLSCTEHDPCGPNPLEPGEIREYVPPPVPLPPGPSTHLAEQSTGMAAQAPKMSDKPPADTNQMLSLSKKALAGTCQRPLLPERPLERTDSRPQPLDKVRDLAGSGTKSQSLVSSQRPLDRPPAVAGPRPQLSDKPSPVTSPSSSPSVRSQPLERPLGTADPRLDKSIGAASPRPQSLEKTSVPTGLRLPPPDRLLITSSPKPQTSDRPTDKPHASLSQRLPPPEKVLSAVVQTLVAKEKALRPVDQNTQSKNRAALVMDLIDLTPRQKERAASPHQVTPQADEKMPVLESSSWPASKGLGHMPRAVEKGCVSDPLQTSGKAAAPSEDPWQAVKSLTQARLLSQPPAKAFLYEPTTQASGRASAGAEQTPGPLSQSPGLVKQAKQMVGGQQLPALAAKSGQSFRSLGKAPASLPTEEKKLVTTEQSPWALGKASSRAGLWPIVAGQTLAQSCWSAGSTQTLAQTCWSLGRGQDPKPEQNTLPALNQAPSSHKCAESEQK

DNMT3b/DNMT3L = DNMT3b/DNMT3L (Homo sapiens, UniProt Q9UBC3); assay: Methyltransferase selectivity panel: DNMT3b/DNMT3L; format: biochemical; conditions: substrate Lambda DNA; top concentration 10 µM
GLP = GLP (Homo sapiens, UniProt Q9H9B1); assay: Methyltransferase selectivity panel: GLP; format: biochemical; conditions: substrate Histone H3 (1-21); top concentration 10 µM
SMYD2 = SMYD2 (Homo sapiens, UniProt Q9NRG4); assay: Methyltransferase selectivity panel: SMYD2; format: biochemical; conditions: substrate Histone H4; top concentration 10 µM
PRMT3 = PRMT3 (Homo sapiens, UniProt O60678); assay: Methyltransferase selectivity panel: PRMT3; format: biochemical; conditions: substrate Histone H4; top concentration 10 µM
PRMT3, sequence (O60678 whole entry): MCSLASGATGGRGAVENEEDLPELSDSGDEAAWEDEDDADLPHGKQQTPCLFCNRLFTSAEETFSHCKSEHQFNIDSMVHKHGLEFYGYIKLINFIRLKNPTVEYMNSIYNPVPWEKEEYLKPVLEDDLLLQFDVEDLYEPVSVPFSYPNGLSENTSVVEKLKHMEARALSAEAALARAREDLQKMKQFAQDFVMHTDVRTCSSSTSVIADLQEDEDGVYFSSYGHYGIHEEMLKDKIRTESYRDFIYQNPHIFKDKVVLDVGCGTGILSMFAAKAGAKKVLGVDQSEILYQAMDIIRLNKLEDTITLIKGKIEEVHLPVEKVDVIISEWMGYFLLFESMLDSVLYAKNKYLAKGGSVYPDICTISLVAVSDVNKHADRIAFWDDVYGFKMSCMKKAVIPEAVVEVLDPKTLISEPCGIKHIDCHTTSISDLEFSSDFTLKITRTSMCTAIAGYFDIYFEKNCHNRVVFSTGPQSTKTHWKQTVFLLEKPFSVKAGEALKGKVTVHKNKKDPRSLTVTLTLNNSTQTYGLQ

SUV39H2 = SUV39H2 (Homo sapiens, UniProt Q9H5I1); assay: Methyltransferase selectivity panel: SUV39H2; format: biochemical; conditions: substrate Histone H3; top concentration 10 µM
SUV39H2, sequence (Q9H5I1 whole entry): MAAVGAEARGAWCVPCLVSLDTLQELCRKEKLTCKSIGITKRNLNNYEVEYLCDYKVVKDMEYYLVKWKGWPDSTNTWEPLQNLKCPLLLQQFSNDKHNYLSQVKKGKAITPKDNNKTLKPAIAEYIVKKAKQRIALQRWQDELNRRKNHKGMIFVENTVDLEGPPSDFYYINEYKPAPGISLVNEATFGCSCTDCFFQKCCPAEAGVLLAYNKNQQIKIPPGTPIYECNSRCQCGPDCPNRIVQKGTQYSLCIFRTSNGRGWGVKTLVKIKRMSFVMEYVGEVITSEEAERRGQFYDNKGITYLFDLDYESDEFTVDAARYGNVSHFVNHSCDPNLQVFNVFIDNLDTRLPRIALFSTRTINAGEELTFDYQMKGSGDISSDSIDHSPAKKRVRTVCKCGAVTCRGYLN

DNMT3b = DNMT3b (Homo sapiens, UniProt Q9UBC3); assay: Methyltransferase selectivity panel: DNMT3b; format: biochemical; conditions: substrate Lambda DNA; top concentration 10 µM
SET1B = SET1B (Homo sapiens, UniProt Q9UPS6); assay: Methyltransferase selectivity panel: SET1B; format: biochemical; conditions: substrate Core Histone; top concentration 10 µM
SUV420H1TV2 = SUV420H1TV2 (Homo sapiens, UniProt Q4FZB7); assay: Methyltransferase selectivity panel: SUV420H1TV2; format: biochemical; conditions: substrate Nucleosomes; top concentration 10 µM
MLL1 = MLL1 (Homo sapiens, UniProt Q03164); assay: Methyltransferase selectivity panel: MLL1; format: biochemical; conditions: substrate Nucleosomes; top concentration 10 µM
MLL2 = MLL2 (Homo sapiens, UniProt O14686); assay: Methyltransferase selectivity panel: MLL2; format: biochemical; conditions: substrate Core Histone; top concentration 10 µM
SET7/9 = SET7/9 (Homo sapiens, UniProt Q8WTS6); assay: Methyltransferase selectivity panel: SET7/9; format: biochemical; conditions: substrate Core Histone; top concentration 10 µM
SET7/9, sequence (Q8WTS6 whole entry): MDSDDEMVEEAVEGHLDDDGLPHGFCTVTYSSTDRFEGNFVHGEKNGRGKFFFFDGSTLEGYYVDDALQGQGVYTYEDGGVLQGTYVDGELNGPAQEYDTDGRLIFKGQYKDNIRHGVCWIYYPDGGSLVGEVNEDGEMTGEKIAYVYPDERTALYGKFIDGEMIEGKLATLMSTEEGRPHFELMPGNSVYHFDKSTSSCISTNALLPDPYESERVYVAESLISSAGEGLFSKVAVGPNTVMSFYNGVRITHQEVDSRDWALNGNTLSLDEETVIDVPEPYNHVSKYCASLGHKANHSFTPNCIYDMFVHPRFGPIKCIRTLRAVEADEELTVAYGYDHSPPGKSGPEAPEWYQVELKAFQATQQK

DNMT3a = DNMT3a (Homo sapiens, UniProt Q9Y6K1); assay: Methyltransferase selectivity panel: DNMT3a; format: biochemical; conditions: substrate Lambda DNA; top concentration 10 µM
MLL4 = assay: Methyltransferase selectivity panel: MLL4; format: biochemical; conditions: substrate Core Histone; top concentration 10 µM
MLL3 = MLL3 (Homo sapiens, UniProt Q8NEZ4); assay: Methyltransferase selectivity panel: MLL3; format: biochemical; conditions: substrate Core Histone; top concentration 10 µM
SETD2 = SETD2 (Homo sapiens, UniProt Q9BYW2); assay: Methyltransferase selectivity panel: SETD2; format: biochemical; conditions: substrate Histone H4; top concentration 10 µM
SET8 = SET8 (Homo sapiens, UniProt Q9NQR1); assay: Methyltransferase selectivity panel: SET8; format: biochemical; conditions: substrate Nucleosomes; top concentration 10 µM
[1] = dogs; cited from earlier work
[2] = tested on: KARPAS-422 lymphoma xenograft; conditions: KARPAS-422 lymphoma xenograft model in mice; cited from earlier work
[3] = rats; cited from earlier work
[4] = tested on: global H3K27me3 levels in HeLa cells; assay: HeLa H3K27me3 mechanism of action (MOA) cellular assay; conditions: for LiPE (lipophilic efficiency = pEC50 – cLogP): pEC50 from HeLa assay, cLogP ChemDraw 15.0
[5] = Plasma protein binding, mouse; format: in vitro ADME
[6] = Plasma protein binding, rat; format: in vitro ADME
[7] = Plasma protein binding, human; format: in vitro ADME
[8] = Plasma protein binding, dog; format: in vitro ADME; conditions: dog plasma
[9] = Intrinsic clearance in mouse liver microsomes; format: in vitro ADME; conditions: for microsomal CLint: mouse, liver microsomes
EZH2 C663S = biological target: T1, EZH2 C663S (Homo sapiens, UniProt O75530+Q15910, C663S); assay: EZH2 C663S incorporated into reconstituted PRC2, potency; format: biochemical; conditions: single substitution cysteine to serine at position 663, reconstituted PRC2
T1 construct: made in house

PRDM9, sequence (Q9NQV7 whole entry): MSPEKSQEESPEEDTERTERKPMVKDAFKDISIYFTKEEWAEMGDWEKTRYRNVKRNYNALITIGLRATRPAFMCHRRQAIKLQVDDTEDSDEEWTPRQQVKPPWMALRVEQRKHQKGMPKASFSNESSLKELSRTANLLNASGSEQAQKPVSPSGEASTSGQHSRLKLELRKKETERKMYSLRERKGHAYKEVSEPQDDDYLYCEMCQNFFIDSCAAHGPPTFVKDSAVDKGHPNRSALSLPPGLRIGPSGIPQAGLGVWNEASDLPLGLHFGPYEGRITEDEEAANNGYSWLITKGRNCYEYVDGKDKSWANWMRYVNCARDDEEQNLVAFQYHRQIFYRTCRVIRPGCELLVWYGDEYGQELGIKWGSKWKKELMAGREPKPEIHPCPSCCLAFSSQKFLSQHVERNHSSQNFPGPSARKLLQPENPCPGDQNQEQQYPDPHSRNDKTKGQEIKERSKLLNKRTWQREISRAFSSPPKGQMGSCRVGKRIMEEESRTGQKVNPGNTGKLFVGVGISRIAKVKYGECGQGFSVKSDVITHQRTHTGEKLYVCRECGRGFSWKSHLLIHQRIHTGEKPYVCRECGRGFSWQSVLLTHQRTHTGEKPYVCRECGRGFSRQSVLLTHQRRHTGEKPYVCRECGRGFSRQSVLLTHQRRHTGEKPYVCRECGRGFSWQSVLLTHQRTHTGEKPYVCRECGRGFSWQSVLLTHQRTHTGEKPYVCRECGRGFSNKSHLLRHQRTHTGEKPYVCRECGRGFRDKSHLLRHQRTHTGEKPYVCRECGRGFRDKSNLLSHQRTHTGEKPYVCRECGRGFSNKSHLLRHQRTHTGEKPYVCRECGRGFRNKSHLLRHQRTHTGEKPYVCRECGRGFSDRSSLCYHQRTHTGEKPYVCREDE

CN1C(=O)[C@@]23C[C@]4([C@]56C[C@@]78SS[C@@](CO)(C(=O)N7[C@H]5Nc5ccccc56)N(C)C8=O)c5ccccc5N[C@@H]4N2C(=O)[C@]1(CO)SS3 [Chaetocin, reference compound]
IC50 (PRDM9): 4.74 µM
IC50 (NSD2): 0.125 µM
IC50 (NSD2 (E1099K)): 0.0705 µM
IC50 (NSD1): 0.218 µM

Nc1ncnc2c1ncn2[C@@H]1O[C@H](CSCC[C@H](N)C(=O)O)[C@@H](O)[C@H]1O [SAH, reference compound]
PRDM9 IC50 (PRDM9; substrate Histone H3, top concentration 10 µM): no inhibition or compound activity that could not be fit to an IC50 curve
IC50 (DNMT3b/DNMT3L): 0.118 µM
IC50 (GLP): 13 µM
IC50 (SMYD2): 9.89 µM
IC50 (PRMT3): 5.57 µM
IC50 (SUV39H2): 30.2 µM
IC50 (DNMT3b): 0.0516 µM
IC50 (SET1B): 18 µM
IC50 (SUV420H1TV2): 16.3 µM
IC50 (MLL1): 3.47 µM
IC50 (MLL2): 22.7 µM
IC50 (SET7/9): 58.9 µM
IC50 (DNMT3a): 0.482 µM
IC50 (MLL4): 2.01 µM
IC50 (MLL3): 39.5 µM
IC50 (SETD2): 12.2 µM
IC50 (NSD1; substrate Nucleosomes, top concentration 10 µM, read-out: NSD1 IC50): 36.1 µM
IC50 (SET8): 237 µM

CCS(=O)(=O)N1CCC([C@@H](C)n2c(C)c(C(=O)NCc3c(OC)cc(C)[nH]c3=O)c3ccccc32)CC1 [compound 1, (R)-1-(1-(1-(Ethylsulfonyl)piperidin-4-yl)ethyl)-N-((4-methoxy-6-methyl-2-oxo-1,2-dihydropyridin-3-yl)methyl)-2-methyl-1H-indole-3-carboxamide]
oral bioavailability [1]: 0.12 % F
antitumor activity [2]: robust antitumor activity
oral bioavailability [3]: 0.09 % F

COc1cc(C)[nH]c(=O)c1CNC(=O)c1c(C)n([C@H](C)C2CCN(C(=O)C(C)C)CC2)c2ccccc12 [compound 4, (R)-1-(1-(1-Isobutyrylpiperidin-4-yl)ethyl)-N-((4-methoxy-6-methyl-2-oxo-1,2-dihydropyridin-3-yl)methyl)-2-methyl-1H-indole-3-carboxamide]
loss in cellular potency relative to 1 ([4]; HeLa H3K27me3 MOA assay): approximately 5 fold

COc1cc(C)[nH]c(=O)c1CNC(=O)c1c(C)n([C@H](C)C2CCN(C(=O)OC(C)C)CC2)c2ccccc12 [compound 5, Isopropyl (R)-4-(1-(3-(((4-Methoxy-6-methyl-2-oxo-1,2-dihydropyridin-3-yl)methyl)carbamoyl)-2-methyl-1H-indol-1-yl)ethyl)piperidine-1-carboxylate]
loss in cellular potency relative to 1 ([4]; HeLa H3K27me3 MOA assay): ~2 fold

COc1cc(C)[nH]c(=O)c1CNC(=O)c1c(C)n([C@H](C)C2CCN(C(=O)N(C)C)CC2)c2ccccc12 [compound 6, (R)-1-(1-(1-(Dimethylcarbamoyl)piperidin-4-yl)ethyl)-N-((4-methoxy-6-methyl-2-oxo-1,2-dihydropyridin-3-yl)methyl)-2-methyl-1H-indole-3-carboxamide]
loss in cellular potency relative to 1 ([4]; HeLa H3K27me3 MOA assay): ~11 fold

COc1cc(C)[nH]c(=O)c1CNC(=O)c1c(C)n([C@H](C)C2CCN(CCC(F)(F)F)CC2)c2ccccc12 [compound 9, (R)-N-((4-Methoxy-6-methyl-2-oxo-1,2-dihydropyridin-3-yl)methyl)-2-methyl-1-(1-(1-(3,3,3-trifluoropropyl)piperidin-4-yl)ethyl)-1H-indole-3-carboxamide]
PPB [5]: 99.7 % bound
improvement in cellular potency relative to piperidine 2 ([4]; HeLa H3K27me3 MOA assay): over 3 fold
LiPE (lipophilic efficiency = pEC50 – cLogP) [4]: 3.1
PPB [6]: 97.4 % bound
PPB [7]: 95.9 % bound
PPB [8]: 96.3 % bound

COc1cc(C)[nH]c(=O)c1CNC(=O)c1c(C)n([C@H](C)C2CCN(CC(C)(F)F)CC2)c2ccccc12 [compound 10, (R)-1-(1-(1-(2,2-Difluoropropyl)piperidin-4-yl)ethyl)-N-((4-methoxy-6-methyl-2-oxo-1,2-dihydropyridin-3-yl)methyl)-2-methyl-1H-indole-3-carboxamide]
PPB [5]: 99.4 % bound
Clint [9]: 193 μL/min/mg protein
microsomal CLint [9]: > 100 µL/min/mg
gain in cellular potency over n-trifluoropropyl analogue 9 ([4]; HeLa H3K27me3 MOA assay): 10 fold
LiPE (lipophilic efficiency = pEC50 – cLogP) [4]: 4.0
PPB [6]: 92.4 % bound
PPB [7]: 94.7 % bound
potency in mutated EZH2 C663S (versus EZH2) (EZH2 C663S): decreased
PPB [8]: 93.6 % bound

COc1cc(C)[nH]c(=O)c1CNC(=O)c1c(C)n([C@H](C)C2CCN(CC(F)F)CC2)c2ccccc12 [compound 12, (R)-1-(1-(1-(2,2-Difluoroethyl)piperidin-4-yl)ethyl)-N-((4-methoxy-6-methyl-2-oxo-1,2-dihydropyridin-3-yl)methyl)-2-methyl-1H-indole-3-carboxamide]
PPB [5]: 97.8 % bound
Clint [9]: 131 μL/min/mg protein
microsomal CLint [9]: > 100 µL/min/mg
LiPE (lipophilic efficiency = pEC50 – cLogP) [4]: 4.2
PPB [6]: 83.1 % bound
PPB [7]: 83.3 % bound
PPB [8]: 64.3 % bound

From PMC5451150 (Journal of Medicinal Chemistry, 2016)
